{
  "source": "patent US8343913B1",
  "about": "“Hsp90, buffering and drug resistance” (priority 2004, dated 2013)",
  "key": {"C. albicans [1]": {"system": "C. albicans", "test": "Selection of fluconazole-resistant mutants on plates", "format": "cell-based, Candida albicans", "conditions": "128 μg/ml fluconazole and 1 μM RAD; CAI4 and CaERG3/erg3; 7 days, 30° C.", "experimental": "Strains of C. albicans were grown at 30° C. in SD prior to plating ˜10^4 cells on SD plates with 128 μg/ml FL or with both 128 μg/ml FL and 1 μM RAD. Plates were photographed after 7 days at 30° C. in the dark."}, "S. cerevisiae [2]": {"system": "S. cerevisiae", "test": "Serial cell dilution (spotting) assay with or without fluconazole", "format": "cell-based, Saccharomyces cerevisiae", "conditions": "GdA 5 μM or RAD 1 μM; 64 μg/ml fluconazole; rich medium, 30° C.; concordant by MIC testing", "experimental": "FIG. 4. Hsp90 and calcineurin are required for FL resistance acquired through diverse mutations. […] Top two panels, deletion mutants. Bottom panel, control strains obtained by rapid (R1-3) and gradual (G1-3) selection. (A) Hsp90 was inhibited by GdA (5 μM) or RAD (1 μM), as indicated. (B) Calcineurin was inhibited by cyclosporin A (CsA, 20 μM).\n(§1) Strains were grown to saturation in SD medium and cell concentrations were standardized based on optical density. Five-fold dilutions, starting from ˜4×10^6 cells/ml, were spotted on media, as indicated in the figure legends, using a spotter (Frogger, V&P Scientific, Inc). The plates were photographed after 2-3 days in the dark at the indicated temperature. For all spotting assays in which Hsp90 or calcineurin inhibitors were employed, the corresponding plates without these inhibitors was supplemented with the maximum final concentration of DMSO used (0.14%), as a solvent control."}, "S. cerevisiae [3]": {"system": "S. cerevisiae", "test": "Fluconazole MIC test (broth microdilution) with Hsp90 or calcineurin inhibitors", "format": "cell-based, Saccharomyces cerevisiae", "experimental": "(§2) Cell densities of overnight cultures were determined and dilutions were prepared such that ˜10^3 cells were inoculated into each well. Radicicol (RAD, A.G. Scientific, Inc.) and geldanamycin (GdA, Alexis Biochemicals) were employed to inhibit Hsp90 at the concentrations indicated in the figure legends (1-5 μM). Cyclosporin A (CsA, CalBiochem) was employed to inhibit calcineurin at a concentration of 20 μM. Dimethyl sulfoxide (DMSO, Sigma-Aldrich Co.) was the solvent for RAD, GdA, and CsA. Thus, the maximum final DMSO concentration (0.14%) was included in FL MIC tests performed in the absence of RAD, GdA, or CsA to control for any solvent effects.\n(§3) After 48 hours, plates were sealed with a clear film (Axygen Scientific), re-suspended by agitation, and absorbance was determined at 595 nm with the Multiskan Ascent photometer (Thermo Labsystems, Thermo Electron Corporation). Absorbance values were corrected for background from the corresponding medium. MICs were determined as the concentration of FL that inhibits fungal growth by 50% relative to the FL-free growth control. The MIC of each strain was tested at least two independent times in duplicate. Most strains were tested in rich medium (half-strength YPD) and SD medium. C. albicans clinical isolates were also tested in the synthetic defined medium that is the standard for clinical testing, RPMI (9)."}, "C. albicans [4]": {"system": "C. albicans", "test": "Serial cell dilution (spotting) assay, growth with RAD", "format": "cell-based, Candida albicans", "conditions": "1 μM RAD; CAI4 and CaERG3/erg3; SD medium, 30° C., two days", "experimental": "Serial dilutions of CAI4 and CaERG3/erg3 were spotted on SD medium (upper panel) and medium supplemented with 1 μM RAD (bottom panel). Plates were photographed after two days at 30° C. in the dark.\nas §1"}, "C. albicans [5]": {"system": "C. albicans", "test": "Fluconazole MIC test (broth microdilution)", "format": "cell-based, Candida albicans", "conditions": "CAI4 and CaERG3/erg3", "experimental": "as §2\nas §3, with “MICs were determined as the concentration of FL that inhibits fungal growth by 50% relative to the FL-free growth control.” left out"}, "C. albicans [6]": {"system": "C. albicans", "conditions": "synthetic defined media; previous studies; cited from earlier work"}, "[7]": {"system": "A. terreus soil isolate ATCC 10020", "test": "Etest strip drug resistance", "format": "cell-based, Aspergillus terreus", "conditions": "rich medium, 35° C., 36 hours", "experimental": "FIG. 6. Hsp90 potentiates resistance to different drugs in C. albicans and A. terreus. […] Plates contained the Hsp90 inhibitor RAD (5 μM) or the calcineurin inhibitor CsA (20 μM). The MIC value is where the inhibition ellipse intersects the strip.\nResistance of C. albicans clinical isolate T118 and A. terreus soil isolate ATCC 10020 to FL, voriconazole (VO), and caspofungin (CS) was determined with Etest strips (AB Biodisk) on rich medium (half-strength YPD). For C. albicans, standardized inoculum was prepared as described above and ˜10^5 cells were plated on medium with the Hsp90 inhibitor RAD (5 μM), the calcineurin inhibitor CsA (20 μM), or the solvent control (0.14% DMSO), prior to application of a test strip. Plates were photographed after 36 hours at 30° C. in the dark. For A. terreus, inoculum was prepared according to a standard protocol (15) and ˜10^5 conidia were plated prior to application of a test strip. Plates were photographed after 36 hours at 35° C. in the dark."}, "[8]": {"conditions": "GdA 5 μM or RAD 5 μM, SD medium, 30° C."}},
  "note": "Entries after “also recorded” stand apart in the source; their conditions may differ.",
  "data": [
    {"smiles": "C[C@@H]1C[C@H]2O[C@@H]2/C=C\\C=C\\C(=O)Cc2c(Cl)c(O)cc(O)c2C(=O)O1", "note": "[RAD, radicicol]", "values": [
      {"measurement": "colonies recovered on selection plates with fluconazole plus RAD", "setting": "C. albicans [1]", "value": "no colonies were recovered"},
      {"measurement": "effect on fluconazole resistance of eleven deletion mutants", "setting": "S. cerevisiae [2]", "value": "reduced the fluconazole resistance in all of them"},
      {"measurement": "effect of inhibitor alone on growth", "setting": "S. cerevisiae [3]; GdA 5 μM or RAD 5 μM, 0 μg/ml fluconazole, SD medium, 30° C.", "value": "did not impair growth on their own"},
      {"measurement": "effect on fluconazole resistance of G1-3 strains (gradual selection)", "setting": "S. cerevisiae [3]; [8]", "value": "neither GdA nor RAD altered resistance"},
      {"measurement": "effect on fluconazole resistance of R1-3 strains (rapid selection)", "setting": "S. cerevisiae [3]; [8]", "value": "abolished fluconazole resistance"},
      {"measurement": "effect on fluconazole sensitivity of progenitor strains", "setting": "S. cerevisiae [3]; [8]", "value": "had no effect"},
      {"measurement": "effect on growth in the absence of fluconazole", "setting": "C. albicans [4]", "value": "does not impair growth; also recorded: had no effect on growth"}
    ]},
    {"smiles": "OC(Cn1cncn1)(Cn1cncn1)c1ccc(F)cc1F", "note": "[fluconazole]", "values": [
      {"measurement": "fluconazole concentration at which growth is completely arrested", "setting": "C. albicans [5]", "value": 16, "unit": "µg/mL"},
      {"measurement": "fluconazole sensitivity of clinical isolate T118", "setting": "C. albicans [6]", "value": "sensitive"},
      {"measurement": "fluconazole concentration at which growth is completely arrested", "setting": "S. cerevisiae [3]; all strains (Lo90, Re90, Hi90), SD medium, 23° C.", "value": 16, "unit": "µg/mL"}
    ]},
    {"smiles": "C[C@@H](c1ncncc1F)[C@](O)(Cn1cncn1)c1ccc(F)cc1F", "note": "[voriconazole]", "values": [
      {"measurement": "sensitivity of A. terreus to voriconazole relative to fluconazole", "setting": "[7]", "value": "much more sensitive to this azole than to fluconazole"},
      {"measurement": "voriconazole resistance of FLR strains", "setting": "S. cerevisiae [3]; all FLR strains obtained by rapid fluconazole selection", "value": "resistant"}
    ]}
  ]
}
